The target of data set [1] is T1, human P-gp (Homo sapiens, UniProt P08183). As to conditions: read-out: [125I]-IAAP labeling IC50; inhibition of photolabeling of P-gp; cited from earlier work.
Data set [2] deals with SW620/Ad300 drug-resistant cell lines. Conditions: cited from earlier work.
Data set [3] has the same test system. Conditions: 10 μM in vitro; cited from earlier work.
The test system of another data set is tumor. As to conditions: mice; no apparent side-effects; cited from earlier work.
The target of data set [4] is T1, human P-gp. As to conditions: 20 min, 2.5 µM, pH 6.8.
Another data set concerns the target CYP3A4 (Homo sapiens, UniProt P08684). Briefly: In vitro CYP3A4 enzyme inhibition assay. Format: in vitro ADME. Conditions: 25 μM.
For a further data set, the system named is HEK 293-pcDNA 3.1 cells. Briefly: MDR reversal. Format: cell-based. As to conditions: 72 h, read-out: IC50 ± SD of paclitaxel.
A further data set in a line: MDR reversal. Format: cell-based. As to conditions: human.
The test system of data set [5] is parental and resistant cell lines. The data set is described as follows: Preliminary cytotoxicity of reversal compounds treated alone. Type of data set: cell-based. As to conditions: 5 μM concentration.

These results are taken from PMC5805629 (Journal of medicinal chemistry, 2018).

T1 sequence (P08183 whole entry): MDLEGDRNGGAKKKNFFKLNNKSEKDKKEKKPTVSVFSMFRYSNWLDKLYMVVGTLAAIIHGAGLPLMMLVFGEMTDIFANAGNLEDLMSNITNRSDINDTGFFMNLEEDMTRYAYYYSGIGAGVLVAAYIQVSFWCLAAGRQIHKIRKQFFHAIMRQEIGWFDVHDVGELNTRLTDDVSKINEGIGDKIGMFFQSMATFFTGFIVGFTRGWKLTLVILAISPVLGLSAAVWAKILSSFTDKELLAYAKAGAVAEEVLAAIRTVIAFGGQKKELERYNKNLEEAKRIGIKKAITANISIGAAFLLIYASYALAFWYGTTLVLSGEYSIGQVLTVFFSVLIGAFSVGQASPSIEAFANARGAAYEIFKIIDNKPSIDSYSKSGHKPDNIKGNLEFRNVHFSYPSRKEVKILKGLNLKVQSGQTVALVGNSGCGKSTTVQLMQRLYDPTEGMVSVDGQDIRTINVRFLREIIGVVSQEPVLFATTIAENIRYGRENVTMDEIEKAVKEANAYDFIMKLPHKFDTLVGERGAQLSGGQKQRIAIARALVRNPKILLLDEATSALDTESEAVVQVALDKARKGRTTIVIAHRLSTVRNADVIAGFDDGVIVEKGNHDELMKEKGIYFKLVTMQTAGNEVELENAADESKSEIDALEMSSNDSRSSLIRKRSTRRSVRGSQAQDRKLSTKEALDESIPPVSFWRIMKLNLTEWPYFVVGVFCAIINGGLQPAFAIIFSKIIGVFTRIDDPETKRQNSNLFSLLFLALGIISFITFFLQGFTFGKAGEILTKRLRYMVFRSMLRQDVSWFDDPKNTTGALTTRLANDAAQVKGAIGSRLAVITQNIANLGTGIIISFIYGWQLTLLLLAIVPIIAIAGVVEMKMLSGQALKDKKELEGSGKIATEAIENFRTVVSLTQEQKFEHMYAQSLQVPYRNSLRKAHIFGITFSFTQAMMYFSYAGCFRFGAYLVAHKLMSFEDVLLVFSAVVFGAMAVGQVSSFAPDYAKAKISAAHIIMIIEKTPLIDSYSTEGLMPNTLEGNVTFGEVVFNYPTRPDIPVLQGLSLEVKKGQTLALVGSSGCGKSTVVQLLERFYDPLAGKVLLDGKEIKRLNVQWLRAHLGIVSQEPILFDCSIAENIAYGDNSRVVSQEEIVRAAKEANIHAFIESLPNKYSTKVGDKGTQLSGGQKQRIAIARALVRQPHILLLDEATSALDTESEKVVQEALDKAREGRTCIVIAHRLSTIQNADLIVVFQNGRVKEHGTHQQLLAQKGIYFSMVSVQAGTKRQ
CYP3A4, sequence (P08684 whole entry): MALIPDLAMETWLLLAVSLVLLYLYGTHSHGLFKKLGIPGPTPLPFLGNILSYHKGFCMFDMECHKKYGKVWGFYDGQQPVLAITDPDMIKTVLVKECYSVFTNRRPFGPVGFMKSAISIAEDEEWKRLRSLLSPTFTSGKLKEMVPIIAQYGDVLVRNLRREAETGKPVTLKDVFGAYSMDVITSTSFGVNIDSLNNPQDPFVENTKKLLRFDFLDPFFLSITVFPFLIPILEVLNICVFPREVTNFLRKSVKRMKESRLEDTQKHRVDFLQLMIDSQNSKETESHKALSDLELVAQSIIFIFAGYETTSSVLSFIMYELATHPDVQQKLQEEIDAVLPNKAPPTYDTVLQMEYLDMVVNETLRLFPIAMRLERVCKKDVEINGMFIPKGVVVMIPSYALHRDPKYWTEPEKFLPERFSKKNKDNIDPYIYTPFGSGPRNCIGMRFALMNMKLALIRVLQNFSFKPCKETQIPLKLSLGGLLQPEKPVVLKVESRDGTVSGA

By IC50 is commonly meant the concentration that gives 50% inhibition. As to `COc1cc(C(=O)N[C@H](c2nc(C(=O)Nc3ccccc3C(=O)c3ccccc3)cs2)C(C)C)cc(OC)c1OC` [Compound 1, (S)-N-(2-benzoylphenyl)-2-(2-methyl-1-(3,4,5-trimethoxybenzamido)propyl)thiazole-4-carboxamide], the IC50 on human P-gp [1] is 720 nM. Further, the intracellular paclitaxel concentration entry in [2] is “increased intracellular paclitaxel concentration”. In addition, the “reversal of resistance to paclitaxel, doxorubicin and vincristine” value in data set [3] is recorded as “significant reversal of resistance”. In the data set on tumor, the “tumor volume and tumor weight” value is “reduced tumor volume and tumor weight”.

Turning to `COc1cc(C(=O)N[C@H](c2nc(C(=O)NC3CCNCC3)cs2)C(C)C)cc(OC)c1OC` [Compound 42, (S)-2-(2-Methyl-1-(3,4,5-trimethoxybenzamido)propyl)-N-(piperidin-4-yl)thiazole-4-carboxamide], the “ATPase activity % Stimulation” value at human P-gp [4] is recorded as 15%.

On to `COc1cc(C(=O)N[C@H](c2nc(C(=O)NCC3CCC(F)(F)CC3)cs2)C(C)C)cc(OC)c1OC` [Compound 63, (S)-N-((4,4-Difluorocyclohexyl)methyl)-2-(2-methyl-1-(3,4,5-trimethoxybenzamido)propyl)thiazole-4-carboxamide], for which, on human P-gp [4], the “ATPase activity % Stimulation” value is 21%.

As to `COc1cc(C(=O)NC(Cc2ccccc2)c2nc(C(=O)NC3CCC(F)(F)CC3)cs2)cc(OC)c1OC` (stereo not shown) [Compound 109, N-(4,4-Difluorocyclohexyl)-2-(2-phenyl-1-(3,4,5-trimethoxybenzamido)ethyl)thiazole-4-carboxamide], the “CYP3A4 Inhibition (%)” value on CYP3A4 is “did not inhibit”.

With `CC(=O)O[C@H]1C(=O)[C@@]2(C)[C@H]([C@H](OC(=O)c3ccccc3)[C@]3(O)C[C@H](OC(=O)[C@H](O)[C@@H](NC(=O)c4ccccc4)c4ccccc4)C(C)=C1C3(C)C)[C@]1(OC(C)=O)CO[C@@H]1C[C@@H]2O` [Paclitaxel, paclitaxel], the IC50 with HEK 293-pcDNA 3.1 cells amounted to 71 ± 15 nM. For the same molecule, the IC50 at 72 h in the data set “MDR reversal” was found to be 2050 ± 87 nM.

With `O[C@@H](COc1cccc2ncccc12)CN1CCN([C@@H]2c3ccccc3[C@@H]3[C@H](c4ccccc42)C3(F)F)CC1` [Zosuquidar, zosuquidar], the cytotoxicity result in data set [5] is given as “cytotoxic”.
